Tests used:
aorta rings = test: Vessel-relaxing action in vitro (aorta rings, phenylephrine contraction); details: Oryctolagus cuniculus, concentration required to reduce phenylephrine-induced contraction of rabbit aorta rings by 50%
Experimental: B-1. Vessel-relaxing Action in vitro
Rabbits are stunned with a blow on the back of the neck and exsanguinated. The aorta is removed, freed from adhering tissue, separated into rings with a width of 1.5 mm, and placed individually, with preloading, in 5-ml organ baths with carbogen-gassed Krebs-Henseleit solution at 37° C. with the following composition (mM in each case): sodium chloride: 119; potassium chloride: 4.8; calcium chloride dihydrate: 1; magnesium sulphate heptahydrate: 1.4; potassium dihydrogen phosphate: 1.2; sodium hydrogen carbonate: 25; glucose: 10. The contraction force is recorded with Statham UC2 cells, amplified and digitized via an A/D converter (DAS-1802 HC, Keithley Instruments Munich) and recorded in parallel on a continuous-line recorder. To produce contraction, phenylephrine is added to the bath cumulatively in increasing concentration. After several control cycles, the test substance is added in increasing dosage in each subsequent pass and the level of contraction is compared with the level of contraction reached in the immediately preceding pass. This is used for calculating the concentration that is required to reduce the level of the control value by 50% (IC50 value). The standard application volume is 5 μl, and the proportion of DMSO in the bath solution corresponds to 0.1%.

[1] = target: T1, human phosphodiesterase 5 (PDE-5) (Homo sapiens, UniProt O76074); test: Inhibition of human phosphodiesterase 5 (PDE-5), SPA assay; format: biochemical; details: PDE-5 preparation from human platelets, [8-3H]cGMP substrate
T1 construct: PDE-5 preparations are obtained from human platelets by lysis; from tissue; host or cells: human platelets
Experimental: B-6. Inhibition of Human Phosphodiesterase 5 (PDE-5)
PDE-5 preparations are obtained from human platelets by lysis (Microfluidizer®, 800 bar, 3 passages), followed by centrifugation (75000 g, 60 min, 4° C.) and ion-exchange chromatography of the supernatant on a Mono Q 10/10 column (linear sodium chloride gradient, elution with a 0.2-0.3M solution of sodium chloride in buffer (20 mM Hepes pH 7.2, 2 mM magnesium chloride). Fractions that have PDE-5 activity are combined (PDE-5 preparation) and stored at −80° C.
For determining their in-vitro action on human PDE-5, the test substances are dissolved in 100% DMSO and serial dilutions are prepared. Typically, dilution series (1:3) from 200 μM to 0.091 μM are prepared (resultant final concentrations in the test: 4 μM to 0.0018 μM). In each case 2 μL of the diluted solutions of the substance are put in the wells of microtitre plates (Isoplate-96/200W; Perkin-Elmer). Then 50 μL of a dilution of the PDE-5 preparation described above is added. The dilution of the PDE-5 preparation is selected so that during subsequent incubation less than 70% of the substrate is reacted (typical dilution: 1:100; dilution buffer: 50 mM Tris/hydrochloric acid pH 7.5, 8.3 mM magnesium chloride, 1.7 mM EDTA, 0.2% BSA). The substrate [8-^3H]cyclic guanosine-3′,5′-monophosphate (1 μCi/μL; Perkin-Elmer) is diluted 1:2000 with assay buffer (50 mM Tris/hydrochloric acid pH 7.5, 8.3 mM magnesium chloride, 1.7 mM EDTA) to a concentration of 0.0005 μCi/μL. The enzyme reaction is finally started by adding 50 μL (0.025 μCi) of the diluted substrate. The test preparations are incubated for 60 min at room temperature and the reaction is stopped by adding 25 μL of a suspension of 18 mg/mL of Yttrium Scintillation Proximity Beads in water (phosphodiesterase beads for SPA assays, RPNQ 0150, Perkin-Elmer). The microtitre plates are sealed with film and left to stand for 60 min at room temperature. Then the plates are measured for 30 s per well in a Microbeta scintillation counter (Perkin-Elmer). IC50 values are determined on the basis of the graphs plotted of the substance concentration versus the percentage PDE-5 inhibition.

[2] = target: T2, recombinant guanylate cyclase reporter cell line (Rattus norvegicus, UniProt P19686+P20595); test: Action on recombinant guanylate cyclase reporter cell line; format: cell-based
T2 construct: expressed in transfected cells
T2 sequence (P20595 1-619): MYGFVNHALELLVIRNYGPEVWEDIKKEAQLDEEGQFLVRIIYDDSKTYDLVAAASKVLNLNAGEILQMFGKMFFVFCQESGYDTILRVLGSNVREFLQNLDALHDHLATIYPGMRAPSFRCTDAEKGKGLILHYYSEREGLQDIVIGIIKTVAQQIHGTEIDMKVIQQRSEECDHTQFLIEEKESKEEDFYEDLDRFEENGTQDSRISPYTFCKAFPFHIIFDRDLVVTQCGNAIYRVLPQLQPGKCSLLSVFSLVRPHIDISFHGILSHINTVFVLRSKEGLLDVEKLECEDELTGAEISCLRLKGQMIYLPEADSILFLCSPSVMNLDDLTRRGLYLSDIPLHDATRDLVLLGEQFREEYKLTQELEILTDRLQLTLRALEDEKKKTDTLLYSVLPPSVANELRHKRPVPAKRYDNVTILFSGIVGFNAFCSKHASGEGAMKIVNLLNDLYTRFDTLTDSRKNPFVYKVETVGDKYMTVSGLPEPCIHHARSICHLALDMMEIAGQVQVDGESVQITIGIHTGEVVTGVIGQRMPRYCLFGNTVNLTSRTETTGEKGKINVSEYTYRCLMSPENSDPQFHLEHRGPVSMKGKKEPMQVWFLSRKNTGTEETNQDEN
T2 sequence (P19686 1-690): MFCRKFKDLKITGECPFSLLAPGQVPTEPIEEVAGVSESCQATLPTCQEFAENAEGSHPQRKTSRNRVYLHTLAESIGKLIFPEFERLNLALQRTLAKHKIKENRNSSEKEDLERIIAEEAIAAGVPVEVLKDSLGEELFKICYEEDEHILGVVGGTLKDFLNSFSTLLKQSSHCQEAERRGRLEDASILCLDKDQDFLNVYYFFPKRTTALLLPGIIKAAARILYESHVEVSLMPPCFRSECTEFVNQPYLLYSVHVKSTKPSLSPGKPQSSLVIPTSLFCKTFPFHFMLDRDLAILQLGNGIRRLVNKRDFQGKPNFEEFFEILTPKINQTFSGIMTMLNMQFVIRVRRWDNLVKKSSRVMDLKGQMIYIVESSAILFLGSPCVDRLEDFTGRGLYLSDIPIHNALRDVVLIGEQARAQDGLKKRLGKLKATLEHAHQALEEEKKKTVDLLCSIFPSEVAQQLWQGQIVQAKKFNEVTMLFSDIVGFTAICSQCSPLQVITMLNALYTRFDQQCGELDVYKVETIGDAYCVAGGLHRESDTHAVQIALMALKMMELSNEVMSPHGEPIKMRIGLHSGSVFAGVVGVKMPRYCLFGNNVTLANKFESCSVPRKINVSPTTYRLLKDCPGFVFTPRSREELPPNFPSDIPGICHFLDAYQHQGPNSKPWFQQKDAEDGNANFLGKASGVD
Experimental: B-2. Action on Recombinant Guanylate Cyclase Reporter Cell Line
The cellular action of the compounds according to the invention is determined on a recombinant guanylate cyclase reporter cell line, as described in F. Wunder et al., Anal. Biochem. 339, 104-112 (2005).

| Compound | IC50 (aorta rings) [nM] | IC50 [1] [nM] | MEC (minimal effective concentration) [2] [μm] |
| --- | --- | --- | --- |
| CC1(C)C(=O)Nc2nc(-c3nn(Cc4ccccc4F)c4ncc(F)cc34)nc(NCC(N)C(F)(F)F)c21 (centres unmarked) [Example 6, 4-[(2-Amino-3,3,3-trifluoropropyl)amino]-2-[5-fluoro-1-(2-fluorobenzyl)-1H-pyrazolo[3,4-b]pyridin-3-yl]-5,5-dimethyl-5,7-dihydro-6H-pyrrolo[2,3-d]pyrimidin-6-one] | 680 | 120 |  |
| COCCCNc1nc(-c2nn(Cc3ccccc3F)c3ncccc23)nc2c1C(C)(C)C(=O)N2 [Example 74, 2-[1-(2-fluorobenzyl)-1H-pyrazolo[3,4-b]pyridin-3-yl]-4-[(3-methoxypropyl)amino]-5,5-dimethyl-5,7-dihydro-6H-pyrrolo[2,3-d]pyrimidin-6-one] |  | 110 | 0.01 |
| COCCN(C)c1nc(-c2nn(Cc3ccccc3F)c3ncccc23)nc2c1C(C)(C)C(=O)N2 [Example 75, 2-[1-(2-fluorobenzyl)-1H-pyrazolo[3,4-b]pyridin-3-yl]-4-[(2-methoxyethyl)(methyl)amino]-5,5-dimethyl-5,7-dihydro-6H-pyrrolo[2,3-d]pyrimidin-6-one] |  | 210 | 0.03 |
| CC1(C)C(=O)Nc2nc(-c3nn(Cc4ccccc4F)c4ncccc34)nc(N3CCC(F)(F)C3)c21 [Example 76, 4-(3,3-difluoropyrrolidin-1-yl)-2-[1-(2-fluorobenzyl)-1H-pyrazolo[3,4-b]pyridin-3-yl]-5,5-dimethyl-5,7-dihydro-6H-pyrrolo[2,3-d]pyrimidin-6-one] |  | 130 | 0.03 |
| CC1(C)C(=O)Nc2nc(-c3nn(Cc4ccccc4F)c4ncccc34)nc(N[C@@H]3CCCNC3=O)c21 [Example 81, 2-[1-(2-fluorobenzyl)-1H-pyrazolo[3,4-b]pyridin-3-yl]-5,5-dimethyl-4-[(2-oxopiperidin-3-yl)amino]-5,7-dihydro-6H-pyrrolo[2,3-d]pyrimidin-6-one] |  | 290 | 0.03 |
| CC1(C)C(=O)Nc2nc(-c3nn(Cc4ccccc4F)c4ncccc34)nc(NC[C@H]3CCCO3)c21 [Example 86, 2-[1-(2-fluorobenzyl)-1H-pyrazolo[3,4-b]pyridin-3-yl]-5,5-dimethyl-4-[(tetrahydrofuran-2-ylmethyl)amino]-5,7-dihydro-6H-pyrrolo[2,3-d]pyrimidin-6-one] |  | 330 | 0.01 |
| CC1(C)C(=O)Nc2nc(-c3nn(Cc4cccc(F)c4F)c4ncc(F)cc34)nc(OCCC(F)(F)F)c21 [Example 110, 2-[1-(2,3-Difluorobenzyl)-5-fluoro-1H-pyrazolo[3,4-b]pyridin-3-yl]-5,5-dimethyl-4-(3,3,3-trifluoropropoxy)-5,7-dihydro-6H-pyrrolo[2,3-d]pyrimidin-6-one] | 10000 | 840 |  |
| CC1(C)C(=O)Nc2nc(-c3nn(Cc4cccc(F)c4F)c4ncc(F)cc34)nc(O)c21 [Example 116, 2-[1-(2,3-Difluorobenzyl)-5-fluoro-1H-pyrazolo[3,4-b]pyridin-3-yl]-4-hydroxy-5,5-dimethyl-5,7-dihydro-6H-pyrrolo[2,3-d]pyrimidin-6-one] |  | 83 | 0.03 |

Next, values leading:

| IC50 (aorta rings) [nM] | IC50 [1] [nM] | MEC (minimal effective concentration) [2] [μm] | Compound |
| --- | --- | --- | --- |
|  | 330 | 0.03 | CC1(C)C(=O)Nc2nc(-c3nn(Cc4ccccc4F)c4ncccc34)nc(NCc3cccc(F)c3)c21 [Example 78, 4-[(3-fluorobenzyl)amino]-2-[1-(2-fluorobenzyl)-1H-pyrazolo[3,4-b]pyridin-3-yl]-5,5-dimethyl-5,7-dihydro-6H-pyrrolo[2,3-d]pyrimidin-6-one] |
|  | 230 | 0.03 | CC1(C)C(=O)Nc2nc(-c3nn(Cc4ccccc4F)c4ncccc34)nc(NCc3ccccc3)c21 [Example 83, 4-(benzylamino)-2-[1-(2-fluorobenzyl)-1H-pyrazolo[3,4-b]pyridin-3-yl]-5,5-dimethyl-5,7-dihydro-6H-pyrrolo[2,3-d]pyrimidin-6-one] |
|  | 19 | 0.1 | CC1(C)C(=O)Nc2nc(-c3nn(Cc4ccccc4F)c4ncccc34)nc(NCc3cccnc3)c21 [Example 84, 2-[1-(2-fluorobenzyl)-1H-pyrazolo[3,4-b]pyridin-3-yl]-5,5-dimethyl-4-[(pyridin-3-ylmethyl)amino]-5,7-dihydro-6H-pyrrolo[2,3-d]pyrimidin-6-one] |
|  | 4.2 | 0.3 | CC1(C)C(=O)Nc2nc(-c3nn(Cc4ccccc4F)c4ncccc34)nc(NCc3ccncc3)c21 [Example 85, 2-[1-(2-fluorobenzyl)-1H-pyrazolo[3,4-b]pyridin-3-yl]-5,5-dimethyl-4-[(pyridin-4-ylmethyl)amino]-5,7-dihydro-6H-pyrrolo[2,3-d]pyrimidin-6-one] |
|  | 210 | 0.03 | CC1(C)C(=O)Nc2nc(-c3nn(Cc4ccccc4F)c4ncccc34)nc(Nc3ccccc3)c21 [Example 87, 2-[1-(2-fluorobenzyl)-1H-pyrazolo[3,4-b]pyridin-3-yl]-5,5-dimethyl-4-(phenylamino)-5,7-dihydro-6H-pyrrolo[2,3-d]pyrimidin-6-one] |
